ChEMBL document CHEMBL4219266, “Identification of quinone analogues as potential inhibitors of picornavirus 3C protease in vitro” (Bioorg Med Chem Lett, 2018)
Activity calls are given as the source filed them. No cut-off for these calls is given here.

How the values were obtained:
Genome polyprotein [1] = biological target: Genome polyprotein (Coxsackievirus B3 (strain Nancy), UniProt P03313); test: Inhibition of human coxsackievirus B3 protease 3C expressed in Escherichia coli (BL21) using fluorogenic-Dabcyl-KEALFQGPPQFE-Edans as substrate after 1 hr by FRET assay
Sequence of Genome polyprotein (Coxsackievirus B3 (strain Nancy), UniProt P03313) (P03313 1541-1723 limits assumed): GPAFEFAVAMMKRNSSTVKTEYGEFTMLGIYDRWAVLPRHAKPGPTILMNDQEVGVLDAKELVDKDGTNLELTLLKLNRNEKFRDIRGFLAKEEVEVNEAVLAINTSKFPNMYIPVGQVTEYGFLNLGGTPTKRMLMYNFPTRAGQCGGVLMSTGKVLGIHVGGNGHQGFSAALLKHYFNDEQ

[2] = biological target: Genome polyprotein (Coxsackievirus B3 (strain Nancy)) (UniProt P03313); test: Inhibition of human coxsackievirus B3 protease 3C expressed in Escherichia coli (BL21) at 40 uM using fluorogenic-Dabcyl-KEALFQGPPQFE-Edans as substrate after 1 hr by FRET assay
Sequence of Genome polyprotein (Coxsackievirus B3 (strain Nancy)) (P03313 whole entry): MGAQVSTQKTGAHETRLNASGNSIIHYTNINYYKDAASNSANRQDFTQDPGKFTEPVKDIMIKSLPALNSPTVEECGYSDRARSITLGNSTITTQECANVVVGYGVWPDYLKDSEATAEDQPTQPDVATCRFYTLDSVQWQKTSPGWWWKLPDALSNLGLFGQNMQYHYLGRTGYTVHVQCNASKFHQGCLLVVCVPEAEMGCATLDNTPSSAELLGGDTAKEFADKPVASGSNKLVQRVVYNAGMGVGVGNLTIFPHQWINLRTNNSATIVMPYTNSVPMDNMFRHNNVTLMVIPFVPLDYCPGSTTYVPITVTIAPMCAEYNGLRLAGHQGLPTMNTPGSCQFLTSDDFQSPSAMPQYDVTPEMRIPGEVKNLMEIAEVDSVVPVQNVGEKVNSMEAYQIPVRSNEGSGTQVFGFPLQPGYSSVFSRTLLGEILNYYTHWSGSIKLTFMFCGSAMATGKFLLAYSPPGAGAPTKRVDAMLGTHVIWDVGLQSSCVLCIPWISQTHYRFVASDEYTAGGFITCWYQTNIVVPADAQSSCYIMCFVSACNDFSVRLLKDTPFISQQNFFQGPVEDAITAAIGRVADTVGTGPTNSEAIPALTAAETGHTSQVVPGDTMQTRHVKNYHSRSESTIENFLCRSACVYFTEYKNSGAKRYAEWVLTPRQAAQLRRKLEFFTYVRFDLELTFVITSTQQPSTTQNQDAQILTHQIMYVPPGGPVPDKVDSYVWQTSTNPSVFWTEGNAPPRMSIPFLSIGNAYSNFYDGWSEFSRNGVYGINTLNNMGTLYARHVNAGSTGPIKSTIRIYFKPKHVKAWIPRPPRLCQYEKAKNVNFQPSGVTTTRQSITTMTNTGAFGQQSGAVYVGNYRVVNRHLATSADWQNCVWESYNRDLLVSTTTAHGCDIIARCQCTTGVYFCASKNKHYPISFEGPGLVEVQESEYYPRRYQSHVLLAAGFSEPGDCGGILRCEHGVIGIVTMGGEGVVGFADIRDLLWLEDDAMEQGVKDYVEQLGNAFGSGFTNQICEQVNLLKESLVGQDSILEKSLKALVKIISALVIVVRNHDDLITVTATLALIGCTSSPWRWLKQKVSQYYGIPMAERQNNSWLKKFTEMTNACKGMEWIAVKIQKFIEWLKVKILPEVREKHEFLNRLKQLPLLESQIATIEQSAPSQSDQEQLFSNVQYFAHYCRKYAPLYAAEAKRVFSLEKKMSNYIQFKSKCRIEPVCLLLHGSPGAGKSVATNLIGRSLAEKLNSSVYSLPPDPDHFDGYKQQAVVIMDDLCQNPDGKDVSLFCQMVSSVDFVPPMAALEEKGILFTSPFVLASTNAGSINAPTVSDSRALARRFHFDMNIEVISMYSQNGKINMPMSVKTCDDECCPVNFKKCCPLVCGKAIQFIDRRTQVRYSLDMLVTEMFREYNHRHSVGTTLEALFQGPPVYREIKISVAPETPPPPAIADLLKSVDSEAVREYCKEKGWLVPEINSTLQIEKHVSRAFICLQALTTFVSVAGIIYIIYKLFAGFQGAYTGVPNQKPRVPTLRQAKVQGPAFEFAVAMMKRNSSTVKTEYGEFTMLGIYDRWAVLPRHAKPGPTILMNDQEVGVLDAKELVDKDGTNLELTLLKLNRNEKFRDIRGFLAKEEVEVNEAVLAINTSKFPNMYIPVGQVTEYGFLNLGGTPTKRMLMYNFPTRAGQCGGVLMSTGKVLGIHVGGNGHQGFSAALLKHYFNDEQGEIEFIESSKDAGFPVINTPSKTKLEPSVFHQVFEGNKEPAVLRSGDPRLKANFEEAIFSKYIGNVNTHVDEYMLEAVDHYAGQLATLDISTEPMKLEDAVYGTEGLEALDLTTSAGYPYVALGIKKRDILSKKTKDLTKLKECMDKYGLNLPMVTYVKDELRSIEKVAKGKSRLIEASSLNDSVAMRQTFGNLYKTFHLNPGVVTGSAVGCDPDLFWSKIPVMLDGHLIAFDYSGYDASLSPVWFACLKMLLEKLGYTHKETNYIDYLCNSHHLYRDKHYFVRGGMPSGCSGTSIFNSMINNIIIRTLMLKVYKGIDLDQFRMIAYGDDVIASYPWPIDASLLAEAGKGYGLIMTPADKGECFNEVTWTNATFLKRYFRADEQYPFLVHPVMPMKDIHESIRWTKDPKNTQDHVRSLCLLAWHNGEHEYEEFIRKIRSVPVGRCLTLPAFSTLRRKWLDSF

[3] = biological target: Genome polyprotein (rhinovirus B14) (UniProt P03303); test: Inhibition of human rhinovirus protease 3C catalytic activity assessed as suppression of target protein cleavage at 5 uM after 30 mins by SDS-PAGE analysis; conditions: Human rhinovirus sp.
Sequence of Genome polyprotein (rhinovirus B14) (P03303 whole entry): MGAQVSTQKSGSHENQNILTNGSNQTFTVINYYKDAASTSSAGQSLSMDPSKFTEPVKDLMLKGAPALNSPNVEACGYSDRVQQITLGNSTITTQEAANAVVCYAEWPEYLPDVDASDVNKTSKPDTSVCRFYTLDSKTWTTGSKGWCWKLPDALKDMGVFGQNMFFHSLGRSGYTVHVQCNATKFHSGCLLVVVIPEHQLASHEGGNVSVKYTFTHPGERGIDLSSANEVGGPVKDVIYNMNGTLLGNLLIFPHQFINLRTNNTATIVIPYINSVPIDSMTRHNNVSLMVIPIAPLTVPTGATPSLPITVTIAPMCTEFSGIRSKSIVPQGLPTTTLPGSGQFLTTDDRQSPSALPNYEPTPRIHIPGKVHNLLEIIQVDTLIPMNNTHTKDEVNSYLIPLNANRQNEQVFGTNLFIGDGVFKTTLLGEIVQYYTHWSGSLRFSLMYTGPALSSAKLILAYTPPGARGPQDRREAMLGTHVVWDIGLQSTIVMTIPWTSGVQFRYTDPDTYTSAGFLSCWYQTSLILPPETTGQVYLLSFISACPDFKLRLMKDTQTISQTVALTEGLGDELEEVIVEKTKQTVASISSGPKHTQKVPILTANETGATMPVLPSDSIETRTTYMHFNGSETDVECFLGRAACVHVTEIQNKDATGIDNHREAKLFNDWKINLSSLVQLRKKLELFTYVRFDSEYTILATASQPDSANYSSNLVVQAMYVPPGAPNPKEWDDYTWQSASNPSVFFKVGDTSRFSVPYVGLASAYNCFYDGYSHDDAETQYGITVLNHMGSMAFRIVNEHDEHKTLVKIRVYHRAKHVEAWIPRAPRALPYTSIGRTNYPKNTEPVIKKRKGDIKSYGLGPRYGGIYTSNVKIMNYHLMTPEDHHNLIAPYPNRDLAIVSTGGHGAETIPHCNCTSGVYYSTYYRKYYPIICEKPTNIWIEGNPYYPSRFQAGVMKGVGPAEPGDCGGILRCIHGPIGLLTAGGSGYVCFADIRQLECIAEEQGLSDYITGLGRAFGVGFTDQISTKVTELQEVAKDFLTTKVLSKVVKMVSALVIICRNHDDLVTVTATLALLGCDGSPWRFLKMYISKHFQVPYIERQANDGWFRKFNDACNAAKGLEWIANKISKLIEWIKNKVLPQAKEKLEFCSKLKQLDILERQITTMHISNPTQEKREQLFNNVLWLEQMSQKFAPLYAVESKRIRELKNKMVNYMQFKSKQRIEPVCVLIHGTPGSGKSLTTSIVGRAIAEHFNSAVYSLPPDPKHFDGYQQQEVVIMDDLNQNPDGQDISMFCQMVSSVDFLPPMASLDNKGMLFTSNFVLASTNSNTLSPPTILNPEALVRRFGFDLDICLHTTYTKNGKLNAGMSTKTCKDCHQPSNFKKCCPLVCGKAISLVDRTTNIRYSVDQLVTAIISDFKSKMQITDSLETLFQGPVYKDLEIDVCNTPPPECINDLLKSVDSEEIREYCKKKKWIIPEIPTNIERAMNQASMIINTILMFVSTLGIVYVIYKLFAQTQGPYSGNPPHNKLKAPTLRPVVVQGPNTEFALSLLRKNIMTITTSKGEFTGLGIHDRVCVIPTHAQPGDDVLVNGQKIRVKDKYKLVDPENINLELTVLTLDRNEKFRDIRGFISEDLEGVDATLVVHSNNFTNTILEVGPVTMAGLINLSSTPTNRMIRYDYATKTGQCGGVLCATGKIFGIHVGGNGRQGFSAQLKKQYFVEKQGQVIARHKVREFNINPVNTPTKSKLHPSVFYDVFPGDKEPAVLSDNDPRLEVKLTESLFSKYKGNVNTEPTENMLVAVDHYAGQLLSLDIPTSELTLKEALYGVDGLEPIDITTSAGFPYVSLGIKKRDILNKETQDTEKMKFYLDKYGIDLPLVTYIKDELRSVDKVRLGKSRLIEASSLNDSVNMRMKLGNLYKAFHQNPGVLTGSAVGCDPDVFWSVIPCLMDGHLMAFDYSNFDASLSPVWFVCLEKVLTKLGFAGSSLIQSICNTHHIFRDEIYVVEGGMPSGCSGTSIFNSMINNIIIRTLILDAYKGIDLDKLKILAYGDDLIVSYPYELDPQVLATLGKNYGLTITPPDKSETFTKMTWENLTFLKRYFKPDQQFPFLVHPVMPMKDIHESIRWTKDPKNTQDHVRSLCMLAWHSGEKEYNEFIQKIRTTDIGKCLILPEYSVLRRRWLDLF

Genome polyprotein [4] = biological target: Genome polyprotein (rhinovirus B14, UniProt P03303); test: Inhibition of recombinant human rhinovirus protease 3C using fluorogenic-Dabcyl-KTSAVLQSGFRKME-Edan as substrate after 5 mins by FRET assay; set-up: species or system Human rhinovirus sp.
Sequence of Genome polyprotein (rhinovirus B14, UniProt P03303) (P03303 1538-1719 limits assumed): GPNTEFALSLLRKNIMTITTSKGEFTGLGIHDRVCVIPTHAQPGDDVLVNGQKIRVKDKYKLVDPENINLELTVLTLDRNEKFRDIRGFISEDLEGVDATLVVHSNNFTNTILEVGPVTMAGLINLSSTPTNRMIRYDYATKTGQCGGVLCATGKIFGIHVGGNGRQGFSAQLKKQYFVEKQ

[5] = biological target: Genome polyprotein (rhinovirus B14) (UniProt P03303); test: Inhibition of human rhinovirus protease 3C catalytic activity assessed as suppression of target protein cleavage at 50 uM after 30 mins by SDS-PAGE analysis; conditions: Human rhinovirus sp.

| Structure (SMILES) | IC50 (Genome polyprotein [1]) | inhibition [2] | further results |
| --- | --- | --- | --- |
| O=C1C(Oc2ccc(O)cc2)=C(Oc2ccc(O)cc2)C(=O)c2ncccc21 | 1200 nM |  |  |
| Cc1[nH]c2ccccc2c1C1=C(Cl)C(=O)c2ncccc2C1=O | 730 nM |  |  |
| O=C1C=CC(=O)N1c1ccc(OC(F)(F)C(F)F)c(N2C(=O)C=CC2=O)c1 | 1200 nM | > 64% |  |
| COC(=O)/C=C/C(=O)[C@@H](NC(=O)OC(C)(C)C)C(C)C | 1800 nM | > 64% |  |
| Cc1ccc(NC2=C(Cl)C(=O)c3nc(C)[nH]c3C2=O)cc1 | 830 nM |  |  |
| Cc1nc2c([nH]1)C(=O)C(Nc1ccc(C(F)(F)F)cc1)=C(Cl)C2=O | 840 nM |  |  |
| COc1ccc(OC2=C(Cl)C(=O)c3ccccc3C2=O)c([N+](=O)[O-])c1 | 1700 nM | > 64% | inhibition [3]: Active; IC50 (Genome polyprotein [4]): 850 nM |
| O=C1C(Cl)=C(Nc2cccc(Cl)c2)C(=O)c2[nH]c(-c3ccncc3)nc21 | 550 nM |  |  |
| Cc1ccc(N/N=C/c2c(O)cc(C)oc2=O)cc1 | 5400 nM | > 64% |  |
| Cc1[nH]c2ccccc2c1C1=C(O)C(=O)c2ncccc2C1=O | 1100 nM |  |  |
| O=C1C(Cl)=C(Cl)C(=O)c2ncccc21 | 630 nM |  |  |
| CN(Cc1ccccc1)CC(C(=O)c1ccc(Cl)cc1)n1cnc2ccccc2c1=O (centres undefined) | 6200 nM | > 64% |  |
| O=C1C(Sc2ccccc2)=C(Sc2ccccc2)C(=O)c2[nH]c(-c3ccncc3)nc21 | 790 nM |  |  |
| Cc1nc2c([nH]1)C(=O)C(Cl)=C(Nc1cc(F)cc(F)c1)C2=O | 900 nM | > 64% | IC50 (Genome polyprotein [4]): 8400 nM; inhibition [5]: Active |
| CC1(C)CC(=O)C2=C(C1)OC(=O)C2(Nc1ccccc1)C(F)(F)F (centres undefined) | 8300 nM | > 64% |  |
| O=C1C(Sc2ccc(Cl)cc2)=C(Sc2ccc(Cl)cc2)C(=O)c2[nH]c(-c3ccncc3)nc21 | 570 nM |  |  |
| O=C(CCN1CCc2ccccc2CC1)c1ccc2c(c1)OCCO2 | 11100 nM | > 64% |  |
